Structures are written as SMILES.

The target in one experiment is Plasminogen (Rattus norvegicus, UniProt Q01177). The experiment can be described thus: Enzyme Assay: Inhibition constant of the compound against Plasmin.
For another experiment, the target named is Prothrombin (Rattus norvegicus, UniProt P18292). In words: Enzyme Assay: Inhibition constant of the compound against Thrombin.
For a further experiment, the target named is Serine protease 1 (Rattus norvegicus, UniProt P00762). The experiment can be described thus: Enzyme Assay: Inhibition constant of the compound against Trypsin.
Serine protease 1, sequence (P00762 whole entry): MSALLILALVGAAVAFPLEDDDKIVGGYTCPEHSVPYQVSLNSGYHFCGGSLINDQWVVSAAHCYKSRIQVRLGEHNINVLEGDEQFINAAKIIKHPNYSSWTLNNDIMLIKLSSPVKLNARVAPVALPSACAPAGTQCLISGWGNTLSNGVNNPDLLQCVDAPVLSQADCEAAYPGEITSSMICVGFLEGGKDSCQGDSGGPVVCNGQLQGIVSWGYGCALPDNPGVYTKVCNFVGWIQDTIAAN

Plasminogen, sequence (Q01177 97-581 limits assumed): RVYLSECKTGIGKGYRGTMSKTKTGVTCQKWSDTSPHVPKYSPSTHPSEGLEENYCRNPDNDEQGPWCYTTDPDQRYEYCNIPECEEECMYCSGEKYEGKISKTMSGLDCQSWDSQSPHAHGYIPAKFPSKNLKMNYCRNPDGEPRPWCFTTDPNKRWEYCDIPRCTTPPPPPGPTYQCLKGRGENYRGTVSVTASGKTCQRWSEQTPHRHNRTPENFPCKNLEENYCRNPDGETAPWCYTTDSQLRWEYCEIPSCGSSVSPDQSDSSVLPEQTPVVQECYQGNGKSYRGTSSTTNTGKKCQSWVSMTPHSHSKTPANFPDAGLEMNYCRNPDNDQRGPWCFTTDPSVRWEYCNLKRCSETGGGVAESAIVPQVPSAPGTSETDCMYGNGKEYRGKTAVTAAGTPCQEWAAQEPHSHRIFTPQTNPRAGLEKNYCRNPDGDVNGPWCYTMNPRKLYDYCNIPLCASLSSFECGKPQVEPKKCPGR
Plasminogen, sequence (Q01177 582-812 limits assumed): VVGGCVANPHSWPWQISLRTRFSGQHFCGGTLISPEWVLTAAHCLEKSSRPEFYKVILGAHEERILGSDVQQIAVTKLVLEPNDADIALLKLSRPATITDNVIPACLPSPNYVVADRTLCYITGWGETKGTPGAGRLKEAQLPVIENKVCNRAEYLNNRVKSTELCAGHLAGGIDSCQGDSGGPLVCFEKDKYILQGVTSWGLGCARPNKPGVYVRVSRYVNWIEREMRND

Turning to `N=C(N)c1ccc(CNC(=O)CNC(=O)[C@@H](CO)NS(=O)(=O)Cc2ccncc2)cc1`, the Ki (as a rule, the equilibrium dissociation constant of an inhibitor or competing ligand from its target) on Plasminogen stood at 37000 nM; on Prothrombin it was 1600 nM; at Serine protease 1, 410 nM.

In turn, `N=C(N)c1ccc(CNC(=O)[C@H](CCCN=C(N)N)NC(=O)[C@@H](CO)NS(=O)(=O)Cc2ccccc2)cc1` yielded an inhibition constant Ki at Serine protease 1 of 7 nM.

As to `N=C(N)c1ccc(CNC(=O)CNC(=O)[C@@H](CO)NS(=O)(=O)Cc2ccc(CN)cc2)cc1`, at Serine protease 1, the affinity, expressed as Ki, was 280 nM.

Compound `N=C(N)c1ccc(CNC(=O)[C@H](CCCCN)NC(=O)[C@@H](CO)NS(=O)(=O)Cc2ccccc2)cc1` yielded a Ki on Serine protease 1 of 6.8 nM.

`N=C(N)c1ccc(CNC(=O)CNC(=O)[C@@H](CO)NS(=O)(=O)Cc2cccc(C(=O)O)c2)cc1` showed a Ki on Serine protease 1 of 720 nM.

(Values after ChEMBL document CHEMBL3638843, “Urokinase inhibitors, production and use thereof” (2013).)
